Activity calls are given as the source filed them. No cut-off for these calls is given here.
Key:
SK-BR-3 = test: Antiproliferative activity against BRCA-proficient human SKBR3 cells after 48 hrs by MTT assay; format: functional, cell-based; settings: SK-BR-3, 48 h
MDA-MB-231 = test: Antiproliferative activity against BRCA-proficient human MDA-MB-231 cells after 48 hrs by MTT assay; format: functional, cell-based; settings: MDA-MB-231, 48 h
MCF7 [1] = test: Antiproliferative activity against BRCA-proficient human MCF7 cells after 48 hrs by MTT assay; format: functional, cell-based; settings: MCF7, 48 h
HCC1937 [2] = test: Antiproliferative activity against BRCA1-deficient human HCC1937 cells after 48 hrs by MTT assay; format: functional, cell-based; settings: HCC1937, 48 h
CAPAN-1 = test: Antiproliferative activity against BRCA2-deficient human Capan1 cells after 48 hrs by MTT assay; format: functional, cell-based; settings: CAPAN-1, 48 h
MX1 = test: Antiproliferative activity against BRCA1-deficient human MX1 cells after 48 hrs by MTT assay; format: functional, cell-based; settings: MX1, 48 h
MCF7 [3] = test: Inhibition of PARP in human MCF7 cells assessed as down regulation of PAR at 1 to 100 uM in presence of adriamycin by western blotting analysis; format: cell-based
Heat shock protein HSP90 [4] = target: T1, Heat shock protein HSP90 (Homo sapiens, UniProt P07900+P08238)
Description: Binding affinity to HSP90 (unknown origin) assessed as Stern-Volmer quenching constant by Stern-Volmer plot analysis

Heat shock protein HSP90 [5] = target: T1, Heat shock protein HSP90; remark: listed apart in the source
Description: Binding affinity to HSP90 (unknown origin) assessed as quenching constant by Stern-Volmer plot analysis

Heat shock protein HSP90 [6] = target: T1, Heat shock protein HSP90; remark: listed apart in the source
Description: Binding affinity to HSP90 (unknown origin) by Line weaver-Burk plot analysis

MCF7 [7] = test: Potency index, ratio of compound IC50 to Olaparib IC50 for antiproliferative activity against human MCF7 cells; format: functional
Heat shock protein HSP90 [8] = target: T1, Heat shock protein HSP90; test: Binding affinity to HSP90 (unknown origin) by fluorescence quenching method; format: protein assay
Heat shock protein HSP90 [9] = target: T1, Heat shock protein HSP90; test: Inhibition of HSP90 (unknown origin) by fluorescence quenching method; format: protein assay
Heat shock protein HSP90 [10] = target: T1, Heat shock protein HSP90; test: Inhibition of HSP90 in human MDA-MB-231 cells assessed as down regulation of BRCA1 protein expression at 1 to 100 uM in presence of adriamycin by western blotting analysis; format: cell-based
HCC1937 [11] = test: Potency index, ratio of compound IC50 to Olaparib IC50 for antiproliferative activity against human HCC1937 cells; format: functional

Row | Compound | IC50 (SK-BR-3) [µM] | IC50 (MDA-MB-231) [µM] | IC50 (MCF7 [1]) [µM] | IC50 (HCC1937 [2]) [µM] | IC50 (CAPAN-1) [µM] | IC50 (MX1) [µM] | inhibition (MCF7 [3]) | KSV (Heat shock protein HSP90 [4]) [×10⁴ L/mol] | Kq (Heat shock protein HSP90 [5]) [×10¹² L/mol/s] | Ka (Heat shock protein HSP90 [6]) [×10⁵ L/mol] | Ratio IC50 (MCF7 [7]) | Kd (Heat shock protein HSP90 [8]) [µM] | IC50 (Heat shock protein HSP90 [9]) [µM] | inhibition (Heat shock protein HSP90 [10]) | Ratio IC50 (HCC1937 [11])
1 | O=C(c1cc(Cc2n[nH]c(=O)c3ccccc23)ccc1F)N1CCN(C(=O)C2CC2)CC1 [OLAPARIB] | 232 | > 200 | > 200 | > 200 | 83.1 | 35.8 |  |  |  |  |  |  |  |  | 
2 | O=C1/C(=C/c2ccccn2)CN(C(=O)c2cc(Cc3n[nH]c(=O)c4ccccc34)ccc2F)C/C1=C\c1ccccn1 | 2.83 | 0.75 | 1.47 | 2.88 | 37.3 | 0.1 | Active | 3.48 | 4.32 | 4.88 | 200 | 29.569 |  |  | 
3 | O=C1CCN(C(=O)c2cc(Cc3n[nH]c(=O)c4ccccc34)ccc2F)CC1 | > 200 | > 200 | > 200 | > 200 | > 200 | > 200 |  |  |  |  |  |  |  |  | 
4 | O=C1/C(=C/c2ccncc2)CN(C(=O)c2cc(Cc3n[nH]c(=O)c4ccccc34)ccc2F)C/C1=C\c1ccncc1 | 2.53 | 4.38 | 0.97 | 2.72 | 0.202 | 0.1 | Active |  |  |  | 200 | 39.975 | 0.97 | Active | 
5 | O=C1/C(=C/c2cccnc2)CN(C(=O)c2cc(Cc3n[nH]c(=O)c4ccccc34)ccc2F)C/C1=C\c1cccnc1 | 15.9 | 7.6 | > 200 | 5.3 | 82.8 | 2 | Active | 3.58 | 4.43 | 4.89 |  | 28.257 |  |  | 40
6 | O=C1/C(=C/c2ccc(F)cc2)CN(C(=O)c2cc(Cc3n[nH]c(=O)c4ccccc34)ccc2F)C/C1=C\c1ccc(F)cc1 | > 200 | > 200 | 173 | 36.1 | > 200 | > 200 |  |  |  |  |  |  |  |  | 
7 | O=C1/C(=C/c2ccc(Cl)cc2)CN(C(=O)c2cc(Cc3n[nH]c(=O)c4ccccc34)ccc2F)C/C1=C\c1ccc(Cl)cc1 | > 200 | 8 | 1.21 | 3.84 | 1.78 | 4.23 |  |  |  |  |  |  |  |  | 
8 | O=C1/C(=C/c2ccc3c(c2)OCO3)CN(C(=O)c2cc(Cc3n[nH]c(=O)c4ccccc34)ccc2F)C/C1=C\c1ccc2c(c1)OCO2 | > 200 | 21.1 | 25.8 | 44.7 | 32 | 13.9 |  |  |  |  |  |  |  |  | 
9 | COc1cc(/C=C2\CN(C(=O)c3cc(Cc4n[nH]c(=O)c5ccccc45)ccc3F)C/C(=C\c3cc(OC)c(OC)c(OC)c3)C2=O)cc(OC)c1OC | > 200 | > 200 | > 200 | 65.3 | 118 | 34.6 |  |  |  |  |  |  |  |  | 
10 | O=C1/C(=C/c2ccccc2O)CN(C(=O)c2cc(Cc3n[nH]c(=O)c4ccccc34)ccc2F)C/C1=C\c1ccccc1O | > 200 | > 200 | > 200 | > 200 | > 200 | 29.2 |  |  |  |  |  |  |  |  | 
11 | O=C1/C(=C/c2cccc(F)c2)CN(C(=O)c2cc(Cc3n[nH]c(=O)c4ccccc34)ccc2F)C/C1=C\c1cccc(F)c1 | > 200 | 5.17 | 1.46 | 10.6 | 1.68 | 2.39 |  |  |  |  |  |  |  |  | 
12 | O=C1/C(=C/c2ccccc2F)CN(C(=O)c2cc(Cc3n[nH]c(=O)c4ccccc34)ccc2F)C/C1=C\c1ccccc1F | > 200 | 7.63 | 2.05 | 16.1 | 2.02 | 3.62 |  |  |  |  |  |  |  |  | 

— ChEMBL document CHEMBL4627353, “Synthesis of novel dual target inhibitors of PARP and HSP90 and their antitumor activities” (Bioorg Med Chem, 2020)
